Test results as given in paper PMC5597618, “Identification and characterization of the novel reversible and selective cathepsin X inhibitors” (Scientific Reports, 2017).

Assays:
[1] = system: PC-3 cells; experiment: Real time cell migration assay (xCELLigence, CIM plates); assay type: cell-based, human
Experimental: (§1) Human prostate cancer cell line PC-3 cells (obtained from ATCC, Manassas, USA; ATCC Number: CRL-1435) were cultured in F-12 (Gibco) and Advanced DMEM (Gibco) (1:1) with 10% FBS, 1% penicillin/streptomycin and 1% L-glutamine. Rat pheochromocytoma PC-12 cells (obtained from ATCC, Manassas, USA; ATCC Number: CRL-1721) were cultured in Advanced DMEM (Gibco) with 5% FBS, 10% heat-inactivated horse serum, 1% penicillin/streptomycin and 1% L-glutamine.
Cell migration assay was performed on a Real-Time Cell Analyzer Dual Plate (RTCA DP) Instrument, xCELLigence System (ACEA Biosciences). CIM plates were coated with fibronectin (10 μg/ml, BD Biosciences) on the down and upper side of the microporous PET membrane for 30 min at room temperature and 2 hours at 37 °C, respectively. Excess fibronectin was removed and wells washed with phosphate buffer saline (PBS). Compounds (10 μM) were added to the complete media (lower chambers) or serum-free media (upper chambers). 0.1% DMSO was used as a control. 2 × 10^4 cells were plated per well. In additional experimental setting, inhibitors were added only to the upper chambers 3 hours after experiment started in order to measure their impact only on the cell migration and not the adhesion. Impedance data, reported as cell index, were measured continuously every 15 min for 72 hours and then analyzed with the RTCA Software (ACEA Biosciences, Inc.). Results are normalized to cells treated with DMSO.

[2] = molecular target: T1, cathepsin B (Homo sapiens, UniProt P07858); experiment: Labeling of cathepsin B with activity-based probe DCG-04 in PC-3 cell lysate; assay type: biochemical; conditions: 10 µM inhibitor
T1 construct: endogenous in cells; host or cells: PC-3

[3] = system: PC-12 cells; experiment: Neurite outgrowth assay; assay type: cell-based, rat; conditions: 10 µM; 48 h; vs DMSO control
Experimental: as §1
PC-12 cells were seeded in 96-well plates (4 × 10^4/well) coated with poly-L-lysine. Next day, the cells were treated with compounds (10 µM) in serum-free medium, and neurite outgrowth was measured after 48 h using Neurite Outgrowth Staining Kit (Molecular Probes), in accordance with the manufacturer’s instructions. Fluorescence intensity was measured at 525 nm with excitation at 483 nm for cell viability indicator and at 567 nm with excitation at 554 nm for cell membrane indicator. Results, expressing increased neurite outgrowth, were normalized to cells treated with DMSO.

[4] = system: PC-12 cells; experiment: Cytotoxicity assay (MTS) in PC-12 cells; assay type: cell-based, rat; conditions: up to 10 μM, 24 and 48 hours
Experimental: as §1
6.5 × 10^4 PC-3 cells/ml were seeded in a 96-well plate. PC-12 cells were seeded on poly-L-lysine (Sigma) coated plates in serum-free medium at a concentration of 4 × 10^4/well. Cells were treated with various concentrations of compounds (1, 2.5, 5 and 10 μM) for 24 or 48 hours. Cytotoxicity was determined with MTS reagent (CellTiter 96 Aqueous One Solution Cell Proliferation Assay, Promega) and A492 measured after 1 hour.

[5] = molecular target: T2, cathepsin X in PC-12 cell lysates (Rattus norvegicus, UniProt Q9R1T3); experiment: Cathepsin X activity in PC-12 cell lysates; assay type: cell-based; conditions: 10 μM
T2 construct: endogenous in cells; host or cells: PC-12
Experimental: To detect cathepsin X activity in cell lysates, 95 μL of activated cell lysates (0.2 mg/mL total protein in assay buffer) were added to a black 96-well plate containing 5 μL of the substrate. The further procedure was the same as above. In some experiments lysates of non-treated cells were pre-incubated with 10 μM of compounds for 30 minutes and then activity was measured as described above.
For testing the enzyme activity in cell lysates, cells were treated with 10 μM of compounds. After 24 hours lysates were prepared in 50 mM Na acetate buffer pH 5.5 with 1 mM EDTA, 100 mM NaCl and 0.25% Triton X-100. Total protein concentration was determined by DC Protein Assay (Bio Rad) according to the instructions.

[6] = molecular target: T3, Cathepsin B (endopeptidase a.) (Homo sapiens, UniProt P07858); experiment: Ki against cathepsin B endopeptidase activity (Z-RR-AMC); assay type: biochemical; conditions: SigmaPlot at 3 different substrate concentrations; pH 6.0
T3 construct: made in house; host or cells: E. coli
Experimental: Recombinant or native human cathepsins were used: recombinant cathepsin X and cathepsin S were expressed in Pichia pastoris, recombinant cathepsins B and L in E. coli, [43], native cathepsin H was isolated from human liver. Assay buffers for determining activities of cathepsins X and L consisted of 100 mM sodium acetate buffer, pH 5.5, for cathepsins H, S and B (endopeptidase activity) of 100 mM phosphate buffer pH 6.8, 6.5 and 6.0, respectively and for cathepsin B (exopeptidase activity) of 60 mM acetate buffer pH 5.0. Each assay buffer contained 0.01% Triton X-100 to prevent false positive inhibition due to aggregation of compounds[45], 5 mM cysteine, 1.5 mM EDTA and 0.1% PEG 8000. Enzymes were activated at 37 °C for 5 min before the assays.
Ki was determined by measuring the initial rate of hydrolysis at three different substrate concentrations (Supplementary Table S2) in the presence of seven different compound concentrations (0, 20, 40, 60, 80, 100 and 200 μM). 90 μL of the activated cathepsin was added to a black 96-well plate with 5 μL of the substrate and 5 μL of the compound. Formation of the fluorescent degradation product was monitored continuously at 460 nm ± 10 nm with excitation at 380 nm ± 20 nm (for AMC substrates) and, as noted above for Abz substrates, at 37 °C. All measurements were performed twice and in duplicate. The resulting data were analyzed by non-linear regression using the software SigmaPlot®, Enzyme Kinetics Module™ 1.3 and were fitted to the equation v = v max [S]/([S] (1 + [I]/αK i ) + K m (1 + [I]/K i )) (first group of compounds). For Ki determination against cathepsin X for the compounds from the second group, progress curves in the absence and presence of each putative inhibitor were fitted to the reaction mechanism presented in Fig. 3b. In this case the resulting data as well as reactivation curves were fitted to the equation system presented in Fig. 3c using ENZO application. For calculation of kinetic parameters from reaction progress curves the fluorescence coefficient for conversion of arbitrary fluorescence units to concentration was first determined. The fluorescence coefficient was calculated as the slope from the plot of initial substrate concentration vs. height of the plateau of the progress curve after complete hydrolysis of increasing concentrations of substrate, using linear regression.
Supplementary Table S2. Substrates used for the various cathepsins and their concentrations […]
Enzyme Substrate Concentration (µM) Reference/Company cathepsin X Abz-FEK(Dnp)-OH 3.25, 6.5, 13 Puzer et al.3 cathepsin B - endopept. Z-RR-AMC 60, 180, 360 Bachem cathepsin B - exopept. Abz-GIVRAK(Dnp)-OH 1, 3, 6 Bachem cathepsin S Z-VVR-AMC 0.5, 1, 1.5 Biomol cathepsin L Z-FR-AMC 0.5, 1, 4 Bachem cathepsin H Z-R-AMC 20, 80, 160 Biomol […]

T2 sequence (Q9R1T3 64-306): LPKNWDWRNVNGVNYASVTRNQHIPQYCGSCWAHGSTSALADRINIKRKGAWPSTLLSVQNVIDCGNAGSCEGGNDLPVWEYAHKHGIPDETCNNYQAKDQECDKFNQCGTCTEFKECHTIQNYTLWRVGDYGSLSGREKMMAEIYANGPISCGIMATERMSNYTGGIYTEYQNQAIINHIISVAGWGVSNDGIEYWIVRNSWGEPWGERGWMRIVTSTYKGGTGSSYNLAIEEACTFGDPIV

## CC(C)n1cnnc1SCC(=O)c1ccc2c(c1)OCCO2 [Compound 22, 1-(2,3-Dihydrobenzo[b][1,4]dioxin-6-yl)-2-((4-isopropyl-4H-1,2,4-triazol-3-yl)thio)ethan-1-one]
[1]; Homo sapiens, PC-3, 10 μM, compound in upper and bottom compartments, vs DMSO
  inhibition at 10 µM: 15 to 30%
[1]; compound only in upper compartment, added 3 hours after seeding
  inhibition of PC-3 cell migration, alternative setting excluding adhesion: inhibits migration
[2]
  inhibition of cathepsin B labeling by DCG-04: weak inhibition
[3]
  increase of neurite outgrowth: 85%
[4]
  cytotoxicity to PC-12 cells: not cytotoxic
[5]
  inhibition of cathepsin X activity in PC-12 cell lysates: most potent
[6]
  Ki: 310 ± 68.3 µM
